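48-hour exposure; five concentrations; linearly interpolated endpoints. At the TGI there is no net growth.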
Experiments:
Experiment in all cases: inhibition of tumour cell growth, NCI panel, 48 h
CAKI-1 renal = system: CAKI-1 renal
TK-10 renal = system: TK-10 renal
LOX IMVI melanoma = system: LOX IMVI melanoma
U251 CNS = system: U251 CNS
IGROV1 ovarian = system: IGROV1 ovarian
MDA-MB-435 = system: MDA-MB-435
NCI-H460 lung = system: NCI-H460 lung
SK-MEL-5 melanoma = system: SK-MEL-5 melanoma
SW-620 colon = system: SW-620 colon
SK-MEL-28 melanoma = system: SK-MEL-28 melanoma
NCI-H522 lung = system: NCI-H522 lung
SR leukemia = system: SR leukemia
UACC-257 melanoma = system: UACC-257 melanoma
SF-539 CNS = system: SF-539 CNS
HCT-116 colon = system: HCT-116 colon
NCI-H226 lung = system: NCI-H226 lung
PC-3 prostate = system: PC-3 prostate
OVCAR-5 ovarian = system: OVCAR-5 ovarian
MALME-3M melanoma = system: MALME-3M melanoma
COLO 205 colon = system: COLO 205 colon
UO-31 renal = system: UO-31 renal
SNB-75 CNS = system: SNB-75 CNS
ACHN renal = system: ACHN renal
HCT-15 colon = system: HCT-15 colon
BT-549 breast = system: BT-549 breast
DU-145 prostate = system: DU-145 prostate
M14 melanoma = system: M14 melanoma
HOP-92 NSCLC = system: HOP-92 NSCLC
SK-OV-3 ovarian = system: SK-OV-3 ovarian
HS 578T breast = system: HS 578T breast
OVCAR-8 ovarian = system: OVCAR-8 ovarian
KM12 colon = system: KM12 colon
HT29 colon = system: HT29 colon
HOP-62 NSCLC = system: HOP-62 NSCLC
EKVX NSCLC = system: EKVX NSCLC
OVCAR-4 ovarian = system: OVCAR-4 ovarian
NCI-H23 lung = system: NCI-H23 lung
MOLT-4 leukemia = system: MOLT-4 leukemia
SF-295 CNS = system: SF-295 CNS
786-0 renal = system: 786-0 renal
MDA-N = system: MDA-N
HCC-2998 colon = system: HCC-2998 colon
NCI/ADR-RES ovarian = system: NCI/ADR-RES ovarian
OVCAR-3 ovarian = system: OVCAR-3 ovarian
MCF7 breast = system: MCF7 breast
RXF 393 renal = system: RXF 393 renal
RPMI-8226 leukemia = system: RPMI-8226 leukemia
A498 renal = system: A498 renal
MDA-MB-231 breast = system: MDA-MB-231 breast
SK-MEL-2 melanoma = system: SK-MEL-2 melanoma
CCRF-CEM leukemia = system: CCRF-CEM leukemia
UACC-62 melanoma = system: UACC-62 melanoma
A549 NSCLC = system: A549 NSCLC
SN12C renal = system: SN12C renal
T-47D breast = system: T-47D breast
SNB-19 CNS = system: SNB-19 CNS
K-562 leukemia = system: K-562 leukemia
HL-60(TB) leukemia = system: HL-60(TB) leukemia
SF-268 CNS = system: SF-268 CNS

O=C1C[C@H](CCC(=O)OCc2ccccc2)NC(=O)C[C@H](CCC(=O)OCc2ccccc2)NC(=O)C[C@H](CCC(=O)OCc2ccccc2)N1
TGI (CAKI-1 renal): > 100 µM | TGI (TK-10 renal): 25.4 µM | TGI (LOX IMVI melanoma): > 100 µM | TGI (U251 CNS): > 100 µM | TGI (IGROV1 ovarian): > 100 µM | TGI (MDA-MB-435): > 100 µM | TGI (NCI-H460 lung): > 100 µM | TGI (SK-MEL-5 melanoma): > 100 µM | TGI (SW-620 colon): > 100 µM | TGI (SK-MEL-28 melanoma): > 100 µM | TGI (NCI-H522 lung): > 100 µM | TGI (SR leukemia): > 100 µM | TGI (UACC-257 melanoma): > 100 µM | TGI (SF-539 CNS): 40.4 µM | TGI (HCT-116 colon): > 100 µM | TGI (NCI-H226 lung): > 100 µM | TGI (PC-3 prostate): > 100 µM | TGI (OVCAR-5 ovarian): > 100 µM | TGI (MALME-3M melanoma): > 100 µM | TGI (COLO 205 colon): > 100 µM | TGI (UO-31 renal): > 100 µM | TGI (SNB-75 CNS): 6.73 µM | TGI (ACHN renal): 69.4 µM | TGI (HCT-15 colon): > 100 µM | TGI (BT-549 breast): > 100 µM | TGI (DU-145 prostate): > 100 µM | TGI (M14 melanoma): > 100 µM | TGI (HOP-92 NSCLC): 18.8 µM | TGI (SK-OV-3 ovarian): 29 µM | TGI (HS 578T breast): > 100 µM | TGI (OVCAR-8 ovarian): > 100 µM | TGI (KM12 colon): > 100 µM | TGI (HT29 colon): > 100 µM | TGI (HOP-62 NSCLC): > 100 µM | TGI (EKVX NSCLC): > 100 µM | TGI (OVCAR-4 ovarian): > 100 µM | TGI (NCI-H23 lung): > 100 µM | TGI (MOLT-4 leukemia): > 100 µM | TGI (SF-295 CNS): 42.8 µM | TGI (786-0 renal): > 100 µM | TGI (MDA-N): > 100 µM | TGI (HCC-2998 colon): > 100 µM | TGI (NCI/ADR-RES ovarian): > 100 µM | TGI (OVCAR-3 ovarian): > 100 µM | TGI (MCF7 breast): > 100 µM | TGI (RXF 393 renal): 8.23 µM | TGI (RPMI-8226 leukemia): > 100 µM | TGI (A498 renal): 30.8 µM | TGI (MDA-MB-231 breast): 78.3 µM | TGI (SK-MEL-2 melanoma): > 100 µM | TGI (CCRF-CEM leukemia): > 100 µM | TGI (UACC-62 melanoma): > 100 µM | TGI (A549 NSCLC): > 100 µM | TGI (SN12C renal): > 100 µM | TGI (T-47D breast): > 100 µM | TGI (SNB-19 CNS): > 100 µM | TGI (K-562 leukemia): > 100 µM

C=CCC1C(=O)Nc2cccc3ncn(c23)C1=O (configuration not stated)
TGI (CAKI-1 renal): > 100 µM | TGI (U251 CNS): > 100 µM | TGI (IGROV1 ovarian): > 100 µM | TGI (MDA-MB-435): > 100 µM | TGI (NCI-H460 lung): > 100 µM | TGI (SK-MEL-5 melanoma): > 100 µM | TGI (SW-620 colon): > 100 µM | TGI (SK-MEL-28 melanoma): > 100 µM | TGI (SR leukemia): > 100 µM | TGI (UACC-257 melanoma): > 100 µM | TGI (SF-539 CNS): > 100 µM | TGI (HCT-116 colon): > 100 µM | TGI (NCI-H226 lung): > 100 µM | TGI (PC-3 prostate): > 100 µM | TGI (OVCAR-5 ovarian): > 100 µM | TGI (MALME-3M melanoma): > 100 µM | TGI (COLO 205 colon): > 100 µM | TGI (UO-31 renal): > 100 µM | TGI (SNB-75 CNS): > 100 µM | TGI (ACHN renal): > 100 µM | TGI (HCT-15 colon): > 100 µM | TGI (BT-549 breast): > 100 µM | TGI (DU-145 prostate): > 100 µM | TGI (M14 melanoma): > 100 µM | TGI (HOP-92 NSCLC): > 100 µM | TGI (SK-OV-3 ovarian): > 100 µM | TGI (HS 578T breast): > 100 µM | TGI (OVCAR-8 ovarian): > 100 µM | TGI (HL-60(TB) leukemia): > 100 µM | TGI (KM12 colon): > 100 µM | TGI (HT29 colon): > 100 µM | TGI (HOP-62 NSCLC): > 100 µM | TGI (EKVX NSCLC): > 100 µM | TGI (OVCAR-4 ovarian): > 100 µM | TGI (SF-268 CNS): > 100 µM | TGI (NCI-H23 lung): > 100 µM | TGI (MOLT-4 leukemia): > 100 µM | TGI (SF-295 CNS): > 100 µM | TGI (786-0 renal): > 100 µM | TGI (MDA-N): > 100 µM | TGI (NCI/ADR-RES ovarian): > 100 µM | TGI (OVCAR-3 ovarian): > 100 µM | TGI (MCF7 breast): > 100 µM | TGI (RXF 393 renal): > 100 µM | TGI (RPMI-8226 leukemia): > 100 µM | TGI (A498 renal): > 100 µM | TGI (MDA-MB-231 breast): > 100 µM | TGI (SK-MEL-2 melanoma): > 100 µM | TGI (CCRF-CEM leukemia): > 100 µM | TGI (UACC-62 melanoma): > 100 µM | TGI (A549 NSCLC): > 100 µM | TGI (SN12C renal): > 100 µM | TGI (T-47D breast): > 100 µM | TGI (SNB-19 CNS): > 100 µM | TGI (K-562 leukemia): > 100 µM
